As usually defined, the IC50 is the concentration needed to halve the response being measured.

Holding throughout (type): cell-based
Data set [1] has as its system ApoB. The experiment in a line: ApoB RNA expression analysis (qPCR) in mouse primary hepatocytes. As to conditions: 72 hrs incubation. Here is the method:
(§1) RNA from cells was isolated using TRI Reagent® Solution (Thermo Scientific) according to the manufacturer’s instruction. Conversion into cDNA was performed using iScript™ cDNA Synthesis Kit (BioRad) using standard protocols. ApoB expression levels and levels of specific hepatocyte housekeeping genes were determined using quantitative real-time PCR assays (qRT-PCR) using iTaq™ Universal SYBR® Green Supermix (BioRad) and the Light Cycler 480 (Roche Diagnostics, Rotkreuz, Switzerland) with specific DNA primers, listed in Table A4 (murine) and Table A2 (human). Analysis was done by the ΔCt method to determine ApoB expression relative to 2 hepatocyte-specific housekeeping control mRNAs. Each analysis reaction was performed in triplicate.
Cryopreserved primary mouse hepatocytes ([…] Cell Culture Technology GmbH, Germany) were thawed in hepatocyte thawing media (HTM, […] Cell Culture Technology GmbH, Germany) and washed 1x with hepatocyte wash media (HWM, […] Cell Culture Technology GmbH, Germany). Cells were re-suspended in hepatocyte plating media (HPM Cryo, […] Cell Culture Technology GmbH, Germany) at a density of approx. 0.275 × 10^6 cells/ml. […] Plating medium was replaced by 315 µl or 108 µl assay media (MHM, […] Cell Culture Technology GmbH, Germany), after which conjugates were added from a 10x concentrated stock solution in PBS.
For orientation: Quantitative PCR measures a nucleic acid by following its amplification.

Data set [2] concerns ApoB. In words: ApoB RNA expression analysis in human primary hepatocytes. As to conditions: read-out: IC50 ApoB gene silencing. Here is the method: (§2) ApoBBNA (ApoBBNA#01, targeting human ApoB mRNA) was conjugated to trivalent-GalNAc ((GalNAc)3) (FIG. 6) and primary hepatocytes (ASGPR1^+) cells were treated with a range of concentrations of (GalNAc)3-ApoBBNA#01 with and without addition of 2000 nM SO1861. ApoB gene silencing in primary hepatocytes (ASGPR1^+) cells was determined.
(§3) ApoB gene silencing in primary hepatocytes (ASGPR1^+) cells was determined. […] The dotted line in the ApoBBNA#02 RNAiMAX indicates concentrations at which toxicity and cell death occurs.
as §1

The test system of data set [3] is human primary hepatocytes (ASGPR1+). In words: Cell viability assay on human primary hepatocytes. As to conditions: + RNAiMAX. As for the experimental part: as §2, §3
Briefly, the MTS solution was diluted 20× in DMEM without phenol red (PAN-Biotech GmbH) supplemented with 10% FBS. The cells were washed once with 200 µL/PBS well, after which 100 µL diluted MTS solution was added/well. The plate was incubated for approximately 20-30 minutes at 37° C. Subsequently, the OD at 492 nm was measured on a Thermo Scientific Multiskan FC plate reader (Thermo Scientific).

[BNANC] = BNA^NC bridged nucleic acid nucleoside; {ThiolC6} = thiol C6 linker; d = 2'-deoxy (DNA)

As for “ApoBBNA#02: murine and human sequence-compatible ApoB BNA^NC oligonucleotide 5′-GCattggtatTCA-3′ [SEQ ID NO: 12], fully phosphorothioated (antisense GCATTGGTATTCA; sugars from the 5' end [BNANC]2 d8 [BNANC]3, all phosphorothioate, 5' {ThiolC6}, methylation of C not given here)”, the “fold less potent in ApoB RNA downmodulation than (GalNAc)3-ApoB#02 BNA + 2000 nM SO1861-EMCH” value in the data set on ApoB [1] was 100 - 667 fold. Also, the IC50 worked out at 20 nM with ApoB [1] (alone, without SO1861-EMCH, read-out: IC50 ApoB RNA expression inhibition); 5 nM in the data set on ApoB [2] (RNAiMAX transfection); 200 nM with ApoB [2] (alone, without SO1861-EMCH); 100 nM in data set [3].

These data come from patent US20230293562A1, “[…] COMBINATION OF GALNAC-OLIGO[…] AND SAPONIN, AND USES THEREOF” (SAPREME TECHNOLOGIES B.V., priority 2020, published 2023).
